Test results as given in patent publication US6849652B1, “1,2,4-triazole derivative, method for preparing the same, and pharmaceutical composition containing the same” (CJ Corp., priority 2002, dated 2005).

Key:
[1] = biological target: T1, COX-2 (Mus musculus, UniProt Q05769); assay: Assay for the COX-2 inhibitory activity using RAW 264.7 cell line (PGE2 inhibition); assay type: cell-based; details: RAW264.7, RAW 264.7 cells, test compound 10 nM, interferon/LPS 18 hours, read-out: Cyclooxygenase (COX) Inhibition (%) COX-2 (10 nM)
T1 construct: host or cells: RAW 264.7 cells, aspirin-pretreated, then induced with interferon and LPS
T1 sequence (Q05769 18-604): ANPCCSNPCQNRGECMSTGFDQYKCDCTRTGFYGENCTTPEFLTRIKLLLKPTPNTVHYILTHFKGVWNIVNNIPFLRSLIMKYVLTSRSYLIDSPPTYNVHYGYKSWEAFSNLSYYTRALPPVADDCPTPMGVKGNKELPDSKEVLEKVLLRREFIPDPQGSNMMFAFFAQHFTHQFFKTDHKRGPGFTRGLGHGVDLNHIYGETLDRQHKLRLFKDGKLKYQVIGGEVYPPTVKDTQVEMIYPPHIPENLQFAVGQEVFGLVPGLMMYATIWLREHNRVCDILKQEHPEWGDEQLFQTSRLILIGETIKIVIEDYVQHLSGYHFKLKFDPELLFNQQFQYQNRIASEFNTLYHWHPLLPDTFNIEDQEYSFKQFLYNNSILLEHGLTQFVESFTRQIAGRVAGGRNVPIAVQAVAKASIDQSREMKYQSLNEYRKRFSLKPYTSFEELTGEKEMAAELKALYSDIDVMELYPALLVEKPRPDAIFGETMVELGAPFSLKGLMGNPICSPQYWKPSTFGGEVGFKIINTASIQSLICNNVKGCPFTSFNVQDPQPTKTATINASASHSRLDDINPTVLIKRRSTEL
Experimental: Each well was treated with 250 μM of aspirin and incubated at 37° C. for 2 hours. After the culture media were replaced with new culture media, the new culture media were treated with a test compound (10 nM) and incubated for 30 minutes. Then, each well was treated with interferon (100 units/ml) and lipopolysaccharide (LPS, 100 ng/ml) and incubated for 18 hours. The culture media were transferred to other test tubes. The concentration of PGE2 was quantified by means of the EIA kit (Cayman Chemicals).
(§1) The percentages of the COX inhibition were calculated according to the following equation:
(§2) % Inhibition=(concentration of PGE2 in test compound-untreated sample —concentration of PGE2 in test compound-treated sample)/(concentration of PGE2 in test compound-untreated sample)×100

[2] = biological target: T2, COX-1 (Homo sapiens, UniProt P23219); assay: Assay for the COX-1 inhibitory activity using U-937 (PGE2 inhibition); assay type: cell-based; details: U-937 human lymphoma cells, test compound 1 μM, PGE2 vs DMSO control; read-out: Cyclooxygenase (COX) Inhibition (%) COX-1 (1 μM)
T2 construct: host or cells: U-937 human lymphoma cells
Experimental: The collected cells were diluted with HBSS (×1, Hank's balanced salt solution) to a concentration of 1×10^6 cells/ml. 1 ml of the dilute cell solution was placed into each well of 12-well plates. 5 μl of 1 μM solution of a test compound in DMSO and 5 μl of DMSO as a control were added to the wells. The wells were incubated in CO2 incubator at 37° C. for 15 minutes. Separately, 10 mM stock solution of arachidonic acid in ethanol was diluted ten times in ethanol to prepare 1 mM solution of arachidonic acid. Arachidonic acid acts as a substrate. 10 μl of the 1 mM solution of arachidonic acid was added to each well and incubated at CO2 incubator at 37° C. for 30 minutes. The cell solution of each well was placed in a centrifuge test tube and centrifuged at 10,000 rpm at 4° C. for 5 minutes. The concentration of PGE2 in the collected cells and the supernatant was quantified by means of a monoclonal kit (Cayman Chemicals). The percentages of PGE2 inhibition in a group of the test compound-treated cells in relation to a group of the DMSO-treated cells were calculated. Based on the calculated values, the COX-1 inhibitory activities were evaluated.
as §1, §2

T2 sequence (P23219 24-599): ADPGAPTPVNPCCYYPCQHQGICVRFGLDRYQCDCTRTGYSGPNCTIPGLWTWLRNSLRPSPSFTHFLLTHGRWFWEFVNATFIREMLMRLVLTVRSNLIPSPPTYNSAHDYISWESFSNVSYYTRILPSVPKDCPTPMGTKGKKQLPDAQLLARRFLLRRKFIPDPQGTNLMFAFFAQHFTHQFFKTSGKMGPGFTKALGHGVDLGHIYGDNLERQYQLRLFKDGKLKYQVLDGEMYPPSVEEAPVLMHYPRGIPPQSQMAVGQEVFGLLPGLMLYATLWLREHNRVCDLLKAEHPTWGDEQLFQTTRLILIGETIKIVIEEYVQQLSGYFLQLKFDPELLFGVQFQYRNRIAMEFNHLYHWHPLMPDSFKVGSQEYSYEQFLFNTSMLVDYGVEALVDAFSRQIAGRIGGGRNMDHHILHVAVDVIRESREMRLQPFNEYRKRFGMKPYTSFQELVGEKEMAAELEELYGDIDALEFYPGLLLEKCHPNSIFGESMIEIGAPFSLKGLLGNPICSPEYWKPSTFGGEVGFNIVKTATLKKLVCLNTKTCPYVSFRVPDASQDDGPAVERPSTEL

| SMILES | inhibition at 0.01 µM [1] [%] | inhibition at 1 µM [2] [%] |
| --- | --- | --- |
| Cc1cccc(-c2nc(C(F)(F)F)nn2-c2ccc(S(C)(=O)=O)c(F)c2)c1 [Example 32, 1-(3-fluoro-4-methanesulfonylphenyl)-5-(3-methylphenyl)-3-trifluoromethyl-1H-1,2,4-triazole] | 27.8 | 23.2 |
| CS(=O)(=O)c1ccc(-n2nc(C(F)(F)F)nc2-c2cccc(F)c2)cc1F [Example 30, 1-(3-fluoro-4-methanesulfonylphenyl)-5-(3-fluorophenyl)-3-trifluoro methyl-1H-1,2,4-triazole] | 15.1 | 23.2 |
| CS(=O)(=O)c1ccc(-n2nc(C(F)(F)F)nc2-c2ccccc2)cc1F [Example 22, 1-(3-fluoro-4-methanesulfonylphenyl)-5-phenyl-3-trifluoromethyl-1H-1,2,4-triazole] | 13.7 | 32.8 |
| CS(=O)(=O)c1ccc(-n2nc(C(F)(F)F)nc2-c2ccc3c(c2)OCO3)cc1F [Example 34, 5-([1,3]benzodioxole-5-yl)-1-(3-fluoro-4-methanesulfonylphenyl)-3-trifluoromethyl-1H-1,2,4-triazole] | 41.5 | 11.2 |
| COc1ccc(-c2nc(C(F)(F)F)nn2-c2ccc(S(C)(=O)=O)c(F)c2)cc1 [Example 23, 1-(3-fluoro-4-methanesulfonylphenyl)-5-(4-methoxyphenyl)-3-trifluoromethyl-1H-1,2,4-triazole] | 41.2 | 15.5 |
| CCOc1ccc(-c2nc(C(F)(F)F)nn2-c2ccc(S(C)(=O)=O)c(F)c2)cc1 [Example 28, 1-(3-fluoro-4-methanesulfonylphenyl)-5-(4-ethoxyphenyl)-3-trifluoromethyl-1H-1,2,4-triazole] | 15.6 | 25.7 |
| CS(=O)(=O)c1ccc(-n2nc(C(F)(F)F)nc2-c2cccc(Cl)c2)cc1F [Example 29, 1-(3-fluoro-4-methanesulfonylphenyl)-5-(3-chlorophenyl)-3-trifluoro methyl-1H-1,2,4-triazole] | 16.4 | 11.1 |
| CS(=O)(=O)c1ccc(-n2nc(C(F)(F)F)nc2-c2ccc(F)cc2)cc1F [Example 24, 1-(3-fluoro-4-methanesulfonylphenyl)-5-(4-fluorophenyl)-3-trifluoro methyl-1H-1,2,4-triazole] | 18.5 | 18.8 |
| CS(=O)(=O)c1ccc(-n2nc(C(F)(F)F)nc2-c2ccc(F)c(F)c2)cc1F [Example 35, 1-(3-fluoro-4-methanesulfonylphenyl)-5-(3,4-difluorophenyl)-3-trifluoromethyl-1H-1,2,4-triazole] | 15.5 | 21.2 |
| COc1ccc(-c2nc(C(F)(F)F)nn2-c2ccc(S(C)(=O)=O)c(F)c2)cc1F [Example 31, 1-(3-fluoro-4-methanesulfonylphenyl)-5-(3-fluoro-4-methoxyphenyl)-3-trifluoromethyl-1H-1,2,4-triazole] | 16.2 | 26.4 |
| Cc1ccc(-c2nc(C(F)(F)F)nn2-c2ccc(S(C)(=O)=O)c(F)c2)cc1 [Example 27, 1-(3-fluoro-4-methanesulfonylphenyl)-5-(4-methylphenyl)-3-trifluoromethyl-1H-1,2,4-triazole] | 19 | 26.4 |
| CS(=O)(=O)c1ccc(-n2nc(C(F)(F)F)nc2-c2ccc(Br)cc2)cc1F [Example 25, 1-(3-fluoro-4-methanesulfonylphenyl)-5-(4-bromophenyl)-3-trifluoromethyl-1H-1,2,4-triazole] | 13.7 | 19.5 |
| CS(=O)(=O)c1ccc(-n2nc(C(F)(F)F)nc2-c2ccc3ccccc3c2)cc1F [Example 33, 1-(3-fluoro-4-methanesulfonylphenyl)-5-(naphthalene-2-yl)-3-trifluoromethyl-1H-1,2,4-triazole] | 13.5 | 44.5 |
| CS(=O)(=O)c1ccc(-n2nc(C(F)(F)F)nc2-c2ccc(Cl)cc2)cc1F [Example 26] | 22.3 | 27.4 |
